Consider 20 compounds from patent US20240101576A1, “HETEROCYCLIC INHIBITORS OF EGFR AND/OR HER2, FOR USE IN THE TREATMENT OF CANCER” (Scorpion Therapeutics, Inc., priority 2020, published 2024).

Structures are written as SMILES. pIC50: −log10 of the molar value.

Holding throughout (type): cell-based
Assay [1] has as its target T1, EGFR exon 20 SVD Ins D770_N771 (Ba/F3 cells) (Homo sapiens, UniProt P00533, INS770SVD).
T1 construct: expressed in transfected cells; host or cells: Ba/F3 (murine pro-B cells), retroviral transduction, puromycin selection, IL3-independent pool
Briefly: Inhibitor activity on EGFR-dependent cell growth (CellTiter-Glo, 72 h), Ba/F3 EGFR exon 20 SVD Ins. Particulars: read-out: BaF3 SVD IC50. The text has this: (§1) Example A. Inhibitor Activity on EGFR-Dependent Cell Growth
(§2) Cell lines are generated by transducing Ba/F3 cells with retroviruses containing vectors with EGFR WT, EGFR L858R, EGFR exon 19del, EGFR L858R/C797S, EGFR exon 20 NPG Ins D770_N771, EGFR exon 20 ASV Ins V769_D770, EGFR exon 20 SVD Ins D770_N771, or EGFR exon 20 FQEA Ins A763_V764 genes and a puromycin selection marker. Transduced cells are selected with puromycin for 7 days and are then be transferred into culture media without Interleukin 3 (IL3). EGFR WT cells are maintained with supplemental EGF. Surviving cells are confirmed to express EGFR by Western blot and maintained as a pool. The IC50 date were included in Table 6 and Table 7.
(§3) 1.1 Cells are harvested from flask into cell culture medium and the cell number counted.
(§4) 1.2 Cells are diluted with culture medium to the desired density and 40 μL of cell suspension is added into each well of 384-well cell culture plate and the seeding density is 800 (FQEA, exon 19del), 600 (WT, NPG, L858R/C797S), or 400 (ASV, SVD, L858R) cells/well.
(§5) 2 Compound Preparation and Treatment
(§6) 2.1 Test compounds are dissolved to 10 mM in a DMSO stock solution. 45 μL of stock solution is transferred to a 384 polypropylene plate (pp-plate). Perform 3-fold, 10-point dilution via transferring 15 μL compound into 30 μL DMSO using a TECAN (EVO200) liquid handler.
(§7) 2.2 Spin plates at room temperature at 1,000 RPM for 1 minute.
(§8) 2.3 Transfer 120 nL of diluted compound from compound source plate into the cell plate.
(§9) 2.4 After compound treatment for 72 hours, perform CTG detection for compound treatment plates as described in “Detection” section.
(§10) 3.1 Plates are removed from incubators and equilibrated at room temperature for 15 minutes.
(§11) 3.2 Thaw the CellTiter Glo reagents and allow to equilibrate to room temperature before the experiment.
(§12) 3.3 Add 40 μL of CellTiter-Glo reagent into each well (at 1:1 to culture medium). Then place the plates at room temperature for 30 min followed by reading on EnVision.
(§13) 4.1 Inhibition activity is calculated following the formula below:
(§14) % Inhibition=100×(LumHC−LumSample)/(LumHC−LumLC) • where HC is obtained from cells treated with 0.1% DMSO only; and LC is obtained from culture medium only.
(§15) 4.2 2. Calculate the IC50 by fitting the Curve using Xlfit (v5.3.1.3), equation 201.
(§16) Y=Bottom+(Top−Bottom)/(1+10^((Log IC50−X)*HillSlope))

A further assay deals with T2, EGFR WT (Ba/F3 cells) (Homo sapiens, UniProt P00533).
T2 construct: expressed in transfected cells; host or cells: Ba/F3 (murine pro-B cells), retroviral transduction, puromycin selection, maintained with EGF
Briefly: Inhibitor activity on EGFR-dependent cell growth (CellTiter-Glo, 72 h), Ba/F3 EGFR WT. Particulars: read-out: BaF3 WT IC50.
From the text: as §1, §2, §3, §4, §5, §6, §7, §8, §9, §10, §11, §12, §13, §14, §15, §16

Assay [2] addresses T3, EGFR exon 20 FQEA Ins A763_V764 (Ba/F3 cells) (Homo sapiens, UniProt P00533, INS763FQEA).
T3 construct: expressed in transfected cells; host or cells: Ba/F3 (murine pro-B cells), retroviral transduction, puromycin selection, IL3-independent pool
Briefly: Inhibitor activity on EGFR-dependent cell growth (CellTiter-Glo, 72 h), Ba/F3 EGFR exon 20 FQEA Ins. As to conditions: read-out: BaF3 FQEA IC50.
From the text: as §1, §2, §3, §4, §5, §6, §7, §8, §9, §10, §11, §12, §13, §14, §15, §16

For assay [3], the target named is T4, EGFR exon 20 ASV Ins V769_D770 (Ba/F3 cells) (Homo sapiens, UniProt P00533, INS769ASV).
T4 construct: expressed in transfected cells; host or cells: Ba/F3 (murine pro-B cells), retroviral transduction, puromycin selection, IL3-independent pool
Briefly: Inhibitor activity on EGFR-dependent cell growth (CellTiter-Glo, 72 h), Ba/F3 EGFR exon 20 ASV Ins. As to conditions: read-out: BaF3 ASV IC50.
From the text: as §1, §2, §3, §4, §5, §6, §7, §8, §9, §10, §11, §12, §13, §14, §15, §16
For orientation: Cellular ATP, detected with luciferase, serves as a proxy for viable cell number.

T4 sequence (P00533 with tags, fused parts or gaps INS769ASV): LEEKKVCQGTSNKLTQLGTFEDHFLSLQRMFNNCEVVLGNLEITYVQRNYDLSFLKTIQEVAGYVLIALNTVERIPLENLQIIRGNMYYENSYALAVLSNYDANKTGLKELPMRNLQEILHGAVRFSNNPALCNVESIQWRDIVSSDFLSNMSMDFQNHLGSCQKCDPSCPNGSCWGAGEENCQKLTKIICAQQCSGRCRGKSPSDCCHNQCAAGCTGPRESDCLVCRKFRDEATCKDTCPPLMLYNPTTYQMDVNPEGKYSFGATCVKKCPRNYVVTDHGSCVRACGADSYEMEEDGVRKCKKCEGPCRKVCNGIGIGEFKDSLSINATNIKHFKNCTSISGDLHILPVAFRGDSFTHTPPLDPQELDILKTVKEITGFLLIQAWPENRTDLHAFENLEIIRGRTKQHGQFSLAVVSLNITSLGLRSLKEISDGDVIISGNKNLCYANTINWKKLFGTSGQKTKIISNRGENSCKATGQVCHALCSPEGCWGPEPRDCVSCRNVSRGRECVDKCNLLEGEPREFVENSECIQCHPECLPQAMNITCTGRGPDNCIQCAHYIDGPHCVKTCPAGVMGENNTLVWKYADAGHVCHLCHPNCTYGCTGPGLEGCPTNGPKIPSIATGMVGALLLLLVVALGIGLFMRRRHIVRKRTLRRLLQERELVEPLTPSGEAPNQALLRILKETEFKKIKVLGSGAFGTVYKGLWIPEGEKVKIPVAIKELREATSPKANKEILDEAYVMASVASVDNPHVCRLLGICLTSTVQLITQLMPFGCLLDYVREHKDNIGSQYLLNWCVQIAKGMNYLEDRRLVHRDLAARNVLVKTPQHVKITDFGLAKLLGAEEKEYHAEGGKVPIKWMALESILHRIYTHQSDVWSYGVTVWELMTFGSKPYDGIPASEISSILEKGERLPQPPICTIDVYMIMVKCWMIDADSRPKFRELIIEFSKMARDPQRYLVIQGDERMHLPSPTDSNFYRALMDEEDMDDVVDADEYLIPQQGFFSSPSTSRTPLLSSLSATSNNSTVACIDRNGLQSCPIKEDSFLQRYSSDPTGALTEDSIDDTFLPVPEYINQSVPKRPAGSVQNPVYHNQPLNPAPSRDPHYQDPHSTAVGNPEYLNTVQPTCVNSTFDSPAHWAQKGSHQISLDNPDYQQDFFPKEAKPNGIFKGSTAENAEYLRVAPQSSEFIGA
T3 sequence (P00533 with tags, fused parts or gaps INS763FQEA): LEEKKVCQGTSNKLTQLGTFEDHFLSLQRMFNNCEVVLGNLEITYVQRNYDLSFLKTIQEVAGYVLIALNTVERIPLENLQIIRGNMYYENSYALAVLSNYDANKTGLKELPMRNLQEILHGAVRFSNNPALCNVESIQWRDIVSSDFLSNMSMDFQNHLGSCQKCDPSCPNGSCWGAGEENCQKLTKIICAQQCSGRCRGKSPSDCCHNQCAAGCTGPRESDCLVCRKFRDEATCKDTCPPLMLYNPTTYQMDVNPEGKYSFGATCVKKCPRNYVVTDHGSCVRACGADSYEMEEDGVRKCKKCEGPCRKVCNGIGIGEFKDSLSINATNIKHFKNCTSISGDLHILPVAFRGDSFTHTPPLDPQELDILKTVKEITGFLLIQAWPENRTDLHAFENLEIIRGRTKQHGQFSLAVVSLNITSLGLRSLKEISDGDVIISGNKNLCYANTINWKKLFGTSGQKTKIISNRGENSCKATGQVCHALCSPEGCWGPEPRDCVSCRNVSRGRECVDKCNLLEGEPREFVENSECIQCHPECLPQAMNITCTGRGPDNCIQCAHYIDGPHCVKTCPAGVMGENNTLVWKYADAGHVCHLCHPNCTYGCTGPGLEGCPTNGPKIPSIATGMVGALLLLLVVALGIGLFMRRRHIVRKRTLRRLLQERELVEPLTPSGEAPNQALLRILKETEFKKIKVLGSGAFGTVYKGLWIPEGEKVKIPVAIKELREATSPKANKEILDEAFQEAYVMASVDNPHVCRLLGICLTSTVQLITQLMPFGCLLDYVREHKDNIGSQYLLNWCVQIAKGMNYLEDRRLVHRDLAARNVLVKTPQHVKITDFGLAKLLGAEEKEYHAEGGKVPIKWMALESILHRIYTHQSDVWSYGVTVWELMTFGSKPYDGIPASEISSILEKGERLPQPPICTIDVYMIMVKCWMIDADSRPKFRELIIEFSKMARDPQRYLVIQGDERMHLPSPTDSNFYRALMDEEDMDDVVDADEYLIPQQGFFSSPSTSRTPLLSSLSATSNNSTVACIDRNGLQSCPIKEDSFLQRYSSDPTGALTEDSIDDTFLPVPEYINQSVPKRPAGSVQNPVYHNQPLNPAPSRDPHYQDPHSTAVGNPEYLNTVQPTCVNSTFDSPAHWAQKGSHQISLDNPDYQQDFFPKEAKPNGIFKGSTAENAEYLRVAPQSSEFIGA
T2 sequence (P00533 25-1210): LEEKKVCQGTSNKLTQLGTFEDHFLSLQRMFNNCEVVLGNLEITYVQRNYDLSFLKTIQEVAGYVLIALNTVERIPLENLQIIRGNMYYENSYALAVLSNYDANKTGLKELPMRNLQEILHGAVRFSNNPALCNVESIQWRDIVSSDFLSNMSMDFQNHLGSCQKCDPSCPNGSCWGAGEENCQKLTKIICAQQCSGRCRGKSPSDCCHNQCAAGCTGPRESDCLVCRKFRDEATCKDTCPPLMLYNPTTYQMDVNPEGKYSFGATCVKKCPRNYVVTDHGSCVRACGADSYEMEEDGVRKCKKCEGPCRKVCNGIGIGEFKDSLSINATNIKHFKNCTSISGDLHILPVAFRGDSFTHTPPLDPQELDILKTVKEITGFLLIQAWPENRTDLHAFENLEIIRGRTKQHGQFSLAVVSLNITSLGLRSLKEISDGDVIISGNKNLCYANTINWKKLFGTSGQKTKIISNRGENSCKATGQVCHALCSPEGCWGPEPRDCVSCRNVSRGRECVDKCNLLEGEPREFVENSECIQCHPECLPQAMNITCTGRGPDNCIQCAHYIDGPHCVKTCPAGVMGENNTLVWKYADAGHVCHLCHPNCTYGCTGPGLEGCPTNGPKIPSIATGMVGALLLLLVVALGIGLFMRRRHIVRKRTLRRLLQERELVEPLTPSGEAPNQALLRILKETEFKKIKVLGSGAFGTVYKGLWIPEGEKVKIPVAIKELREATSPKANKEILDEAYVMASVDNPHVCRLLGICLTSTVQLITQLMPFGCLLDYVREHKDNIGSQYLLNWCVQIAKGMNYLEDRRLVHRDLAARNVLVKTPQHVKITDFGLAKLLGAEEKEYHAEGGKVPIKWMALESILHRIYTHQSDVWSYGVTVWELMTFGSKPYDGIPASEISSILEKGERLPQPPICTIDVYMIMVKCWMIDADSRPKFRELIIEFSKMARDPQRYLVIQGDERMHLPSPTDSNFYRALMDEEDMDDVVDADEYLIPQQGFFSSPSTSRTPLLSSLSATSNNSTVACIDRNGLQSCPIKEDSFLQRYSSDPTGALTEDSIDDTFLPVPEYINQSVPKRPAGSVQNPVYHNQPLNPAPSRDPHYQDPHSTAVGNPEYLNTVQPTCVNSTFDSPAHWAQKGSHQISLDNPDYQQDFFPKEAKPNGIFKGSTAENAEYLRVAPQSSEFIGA
T1 sequence (P00533 with tags, fused parts or gaps INS770SVD): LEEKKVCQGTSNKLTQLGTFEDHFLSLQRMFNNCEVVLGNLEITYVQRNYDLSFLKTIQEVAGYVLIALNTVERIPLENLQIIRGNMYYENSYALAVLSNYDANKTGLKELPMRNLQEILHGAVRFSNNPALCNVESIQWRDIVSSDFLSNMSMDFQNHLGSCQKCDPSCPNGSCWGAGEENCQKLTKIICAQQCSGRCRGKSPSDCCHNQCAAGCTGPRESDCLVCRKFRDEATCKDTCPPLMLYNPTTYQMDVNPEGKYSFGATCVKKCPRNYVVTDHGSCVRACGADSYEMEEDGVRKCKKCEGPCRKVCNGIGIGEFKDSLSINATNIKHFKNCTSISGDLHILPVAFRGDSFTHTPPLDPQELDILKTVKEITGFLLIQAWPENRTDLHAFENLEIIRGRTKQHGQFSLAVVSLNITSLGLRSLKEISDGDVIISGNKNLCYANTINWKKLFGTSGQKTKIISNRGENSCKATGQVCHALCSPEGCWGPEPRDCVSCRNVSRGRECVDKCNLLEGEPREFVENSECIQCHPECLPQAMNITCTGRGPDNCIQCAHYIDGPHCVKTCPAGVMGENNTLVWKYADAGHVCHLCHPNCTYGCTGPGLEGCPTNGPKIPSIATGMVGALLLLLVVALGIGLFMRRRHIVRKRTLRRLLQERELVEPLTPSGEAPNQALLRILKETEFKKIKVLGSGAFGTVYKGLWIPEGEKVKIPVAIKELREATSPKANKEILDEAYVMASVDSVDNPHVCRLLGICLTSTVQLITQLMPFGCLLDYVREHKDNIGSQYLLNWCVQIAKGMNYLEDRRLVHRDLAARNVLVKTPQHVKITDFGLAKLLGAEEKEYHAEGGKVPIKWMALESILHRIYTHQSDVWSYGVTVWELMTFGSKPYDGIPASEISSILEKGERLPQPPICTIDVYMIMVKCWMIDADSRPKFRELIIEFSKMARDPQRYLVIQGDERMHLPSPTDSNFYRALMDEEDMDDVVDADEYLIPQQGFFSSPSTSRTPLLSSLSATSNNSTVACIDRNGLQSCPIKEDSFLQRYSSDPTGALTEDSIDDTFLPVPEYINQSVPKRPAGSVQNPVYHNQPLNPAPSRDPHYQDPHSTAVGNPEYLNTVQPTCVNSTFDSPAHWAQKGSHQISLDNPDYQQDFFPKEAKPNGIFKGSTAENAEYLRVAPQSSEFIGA

One may read the pIC50 as the negative decadic logarithm of the IC50, by convention in mol/L. For the compound `COc1c(Cl)cccc1Nc1c(-c2ccnc(NC[C@H]3COCCO3)n2)[nH]c2c1C(=O)NCC2` [compound 723, 3-[(3-chloro-2-methoxyphenyl)amino]-2-(2-[[(2S)-1,4-dioxan-2-ylmethyl]amino]pyrimidin-4-yl)-1H,5H,6H,7H-pyrrolo[3,2-c]pyridin-4-one], the pIC50 in assay [1] was under 6.00; at EGFR WT (Ba/F3 cells), under 6.00; in assay [2], under 6.00; in assay [3] it was 6.00 to 7.00.

As for `COc1c(Cl)cccc1Nc1c(-c2ccnc3ccc(OC4(C)CC4)nc23)[nH]c2c1C(=O)NC[C@@H]2C` (single isomer, unassigned) [Compound 775], the negative logarithm of the IC50 (pIC50) (in assay [1]; at EGFR WT (Ba/F3 cells); in assay [2]; in assay [3]) was over 7.00 throughout.

For `COc1c(Cl)cccc1Nc1c(-c2ccncc2F)[nH]c2c1C(=O)NC[C@H]2CC(N)=O` [Compound 489], the pIC50 is 6.00 to 7.00 in assay [1], under 6.00 on EGFR WT (Ba/F3 cells), 6.00 to 7.00 in assay [2] and 6.00 to 7.00 in assay [3].

`COc1c(Cl)cccc1Nc1c(-c2ccncc2F)[nH]c2c1C(=O)NC[C@@H]2CC(C)(C)O` [Compound 496, (7S)-3-[(3-chloro-2-methoxyphenyl)amino]-2-(3-fluoropyridin-4-yl)-7-(2-hydroxy-2-methylpropyl)-1H,5H,6H,7H-pyrrolo[3,2-c]pyridin-4-one]: the negative logarithm of the IC50 (pIC50) in assay [1] is 6.00 to 7.00; on EGFR WT (Ba/F3 cells), under 6.00; in assay [2] it was 6.00 to 7.00; in assay [3], 6.00 to 7.00.

Regarding `COc1c(Cl)cccc1Nc1c(-c2ccnc3ccc(OC4CCC4)nc23)[nH]c2c1C(=O)NCC2` [compound 768, 3-[(3-chloro-2-methoxyphenyl)amino]-2-(6-cyclobutoxy-1,5-naphthyridin-4-yl)-1H,5H,6H,7H-pyrrolo[3,2-c] pyridin-4-one], the negative logarithm of the IC50 (pIC50) in assay [1] is over 7.00; at EGFR WT (Ba/F3 cells) it was 6.00 to 7.00; in assay [2], over 7.00; in assay [3] it was over 7.00.

`COc1ncc2nccc(-c3[nH]c4c(c3Nc3cccc(F)c3F)C(=O)NCC4)c2n1` [Compound 805, 3-[(2,3-difluorophenyl)amino]-2-[2-methoxypyrido[3,2-d]pyrimidin-8-yl]-1H,5H,6H,7H-pyrrolo[3,2-c]pyridin-4-one]: the negative-log IC50 (pIC50) in assay [1] is over 7.00; on EGFR WT (Ba/F3 cells) it was 6.00 to 7.00; in assay [2] it was over 7.00; in assay [3], 6.00 to 7.00.

With `COc1ccc2nccc(-c3[nH]c4c(c3Nc3cccc(Cl)c3OC)C(=O)NC[C@H]4CCF)c2n1` [Compound 745, (R)-3-((3-chloro-2-methoxyphenyl)amino)-7-(2-fluoroethyl)-2-(6-methoxy-1,5-naphthyridin-4-yl)-1,5,6,7-tetrahydro-4H-pyrrolo[3,2-c]pyridin-4-one], the pIC50 (in assay [1]; on EGFR WT (Ba/F3 cells); in assay [2]; in assay [3]) was over 7.00 throughout.

As for `COc1c(F)cccc1Nc1c(-c2ccnc3cnc(C(F)(F)F)nc23)[nH]c2c1C(=O)NCC2` [compound 417], the negative-log IC50 (pIC50) was 6.00 to 7.00 in assay [1], under 6.00 on EGFR WT (Ba/F3 cells), 6.00 to 7.00 in assay [2] and 6.00 to 7.00 in assay [3].

On to `C=CC[C@H]1CNC(=O)c2c1[nH]c(-c1ccncc1F)c2Nc1cccc(Cl)c1OC` [compound 811], for which the negative logarithm of the IC50 (pIC50) (in assay [1]; on EGFR WT (Ba/F3 cells); in assay [2]; in assay [3]) was under 6.00 throughout.

Consider `COc1c(Cl)cccc1Nc1c(-c2ccnc3ccc(OC4COC4)nc23)[nH]c2c1C(=O)NCC21CC1` [Compound 777, 3′-[(3-chloro-2-methoxyphenyl)amino]-2′-[6-(oxetan-3-yloxy)-1,5-naphthyridin-4-yl]-5′,6′-dihydro-1′H-spiro[cyclopropane-1,7′-pyrrolo[3,2-c]pyridin]-4′-one], for which the pIC50 in assay [1] was over 7.00; at EGFR WT (Ba/F3 cells) it was 6.00 to 7.00; in assay [2], over 7.00; in assay [3], over 7.00.

As to `COc1c(Cl)cccc1Nc1c(-c2ccncc2F)[nH]c2c1C(=O)NC[C@H]2CCN1CCOCC1` [compound 484, (7R)-3-[(3-chloro-2-methoxyphenyl)amino]-2-(3-fluoropyridin-4-yl)-7-[2-(morpholin-4-yl)ethyl]-1H,5H,6H,7H-pyrrolo[3,2-c]pyridin-4-one], the pIC50 (in assay [1]; at EGFR WT (Ba/F3 cells); in assay [2]; in assay [3]) was under 6.00 throughout.

On to `COc1ncc2nccc(-c3[nH]c4c(c3Nc3cccc(Cl)c3OC)C(=O)N[C@H](C(F)(F)F)C4)c2n1` [Compound 508, (6S)-3-[(3-chloro-2-methoxyphenyl)amino]-2-{2-methoxypyrido[3,2-d]pyrimidin-8-yl}-6-(trifluoromethyl)-1H,5H,6H,7H-pyrrolo[3,2-c]pyridin-4-one], for which the negative logarithm of the IC50 (pIC50) in assay [1] was 6.00 to 7.00; at EGFR WT (Ba/F3 cells) it was under 6.00; in assay [2], 6.00 to 7.00; in assay [3], under 6.00.

With `COc1c(Cl)cccc1Nc1c(-c2ccncc2F)[nH]c2c1C(=O)NCC2C[C@H]1CO[C@H](CN(C)C)CO1` (single isomer, unassigned) [Compound 565, (7R*)-3-[(3-chloro-2-methoxyphenyl)amino]-7-{[(2S,5R)-5-[(dimethylamino)methyl]-1,4-dioxan-2-yl]methyl}-2-(3-fluoropyridin-4-yl)-1H,5H,6H,7H-pyrrolo[3,2-c]pyridin-4-one], the negative-log IC50 (pIC50) on EGFR WT (Ba/F3 cells) is under 6.00; in assay [3], 6.00 to 7.00.

Regarding `COc1c(Cl)cccc1Nc1c(-c2ccncc2F)[nH]c2c1C(=O)NCC2CC1CCO1` (single isomer, unassigned) [Compound 785], the figures for the pIC50 (at EGFR WT (Ba/F3 cells); in assay [2]; in assay [3]) were 6.00 to 7.00, over 7.00 and over 7.00, respectively.

Take `COc1c(Cl)cccc1Nc1c(-c2ccncn2)[nH]c2c1C(=O)NCC2` [compound 675, 3-[(3-chloro-2-methoxyphenyl)amino]-2-(pyrimidin-4-yl)-1H,5H,6H,7H-pyrrolo[3,2-c]pyridin-4-one]: the results for the pIC50 (at EGFR WT (Ba/F3 cells); in assay [2]) were under 6.00 and 6.00 to 7.00, respectively.

For `COc1c(Cl)cccc1Nc1c(-c2ccncc2F)[nH]c2c1C(=O)NCC2CC1CCO1` (single isomer, unassigned) [Compound 783], the figures for the pIC50 (at EGFR WT (Ba/F3 cells); in assay [2]; in assay [3]) were under 6.00, 6.00 to 7.00 and over 7.00, respectively.

As for `COc1c(Cl)cccc1Nc1c(-c2ccncc2F)[nH]c2c1C(=O)NCC2CC1CCO1` (single isomer, unassigned) [Compound 786], the pIC50 on EGFR WT (Ba/F3 cells) was 6.00 to 7.00; in assay [2] it was 6.00 to 7.00; in assay [3] it was over 7.00.

As to `COc1c(Cl)cccc1Nc1c(-c2ccncc2F)[nH]c2c1C(=O)NCC2` [compound 410], the figures for the pIC50 (at EGFR WT (Ba/F3 cells); in assay [2]) were under 6.00 and 6.00 to 7.00, respectively.

For `COc1c(Cl)cccc1Nc1c(-c2ccncc2F)[nH]c2c1C(=O)NCC2CC1CCO1` (single isomer, unassigned) [Compound 784], the pIC50 was under 6.00 on EGFR WT (Ba/F3 cells), 6.00 to 7.00 in assay [2] and 6.00 to 7.00 in assay [3].

As to `COCCC1(C)CNC(=O)c2c1[nH]c(-c1ccncc1F)c2Nc1cccc(Cl)c1OC` (single isomer, unassigned) [Compound 780], the negative-log IC50 (pIC50) at EGFR WT (Ba/F3 cells) was […]; in assay [3], […].
